Reference: US20230124589A1, “Ivacaftor Glycosides, Methods Of Making, And Uses Thereof In Treating Cystic Fibrosis” (DoubleRainbow Biosciences Inc., priority 2020, published 2023)
In brackets after ≈: the same amount, converted by molar mass.

Assays:
[1] = Water solubility (excess compound suspended in distilled water, supernatant measured by HPLC); type: physicochemical
Experimental: The water solubility of ivacaftor and ivacaftor-17-O-D-glucoside was investigated by suspending excess amounts of the two compounds in 200 μl of distilled water in a microcentrifuge tube at 25° C. for 12 h. Afterwards, each sample was centrifuged at 12,000×g for 20 min. The supernatant of each sample was then filtered through a 0.45-μm membrane filter and the concentration of the compound in the supernatant, which is defined as the water-soluble component, was measured by its absorbance at 300 nm using HPLC, and its absolute solubility was calculated in reference to the concentration-absorbance standard curve.

[2] = background statement, no method given; cited from earlier work

Row | SMILES | water solubility, times higher than ivacaftor ([1]; distilled water, 25° C., 12 h, relative to ivacaftor) | water solubility ([1]; distilled water, 25° C., 12 h, supernatant filtered 0.45-μm, absorbance at 300 nm by HPLC) | solubility at 12 h ([1]; 25 °C, water, thermodynamic from solid) | solubility in water [2]
1 | CC(C)(C)c1cc(C(C)(C)C)c(OC2O[C@H](CO)[C@@H](O)[C@H](O)[C@H]2O)cc1NC(=O)c1c[nH]c2ccccc2c1=O (stereo partly drawn) [ivacaftor-17-O-D-glucoside] | 14,550 times | 1,455 mg/L |  | 
2 | CC(C)(C)c1cc(C(C)(C)C)c(NC(=O)c2c[nH]c3ccccc3c2=O)cc1O [ivacaftor, Ivacaftor] |  |  | 0.1 µg/mL (≈ 0.255 µM) | < 1 µg/mL
